Experimental data from PubChem BioAssay AID1963836 (Molecular Pharmacology Branch, DTP, NCI, 2024).

Test system: 857933-349-R-J2-PDC complex spheroid viability
Assay: Anticancer human tumor 857933-349-R-J2-PDC patient-derived colon adenocarcinoma cell line growth inhibition [POLQ]
Conditions: for IC50: curve of first compound; for viability, T/C: stronger effect = lower value
Summary of the method: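 Patient-derived tumour cells were co-cultured with HUVEC and mesenchymal stem cells as multicellular spheroids at 37 °C. They were treated with POLQ inhibitors (novobiocin, ART-558, RP6685) alone or combined with other agents. Top concentrations were at or near clinical Cmax (otherwise 10 microM; SN-38 at 1 microM), decreasing in half-log steps.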
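Further: spheroids exposed to compounds for seven days before readout.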

In the case of C=CCn1c(=O)c2cnc(Nc3ccc(N4CCN(C)CC4)cc3)nc2n1-c1cccc(C(C)(C)O)n1 + Cc1cccc(N(C)C(=O)C2C(O)CCN2c2nc(C)cc(C(F)(F)F)c2C#N)c1, the IC50 (second compound 0.0316 µM) is reported as greater than 1000 nM, the IC50 (second compound 0.1 µM) is reported as greater than 1000 nM and the IC50 (second compound 0.316 µM) is reported as greater than 1000 nM. It also gave an IC50 (second compound 1 µM) greater than 1000 nM, an IC50 (second compound 3.16 µM) greater than 1000 nM and an IC50 (second compound 10 µM) greater than 1000 nM. For the same molecule, the viability, T/C (second compound 0.0316 µM, first compound 0.00316 µM) was 103%, the viability, T/C (second compound 0.0316 µM, first compound 0.01 µM) was 98.2% and the viability, T/C (second compound 0.0316 µM, first compound 0.0316 µM) was 96.8%. The viability, T/C (second compound 0.0316 µM, first compound 0.1 µM) was 112%, the viability, T/C (second compound 0.0316 µM, first compound 0.316 µM) was 96.2% and the viability, T/C (second compound 0.0316 µM, first compound 1 µM) was 79.3%. The viability, T/C (second compound 0.1 µM, first compound 0.00316 µM) was 99.4%, the viability, T/C (second compound 0.1 µM, first compound 0.01 µM) was 98.9% and the viability, T/C (second compound 0.1 µM, first compound 0.0316 µM) was 88.2%. It also gave a viability, T/C (second compound 0.1 µM, first compound 0.1 µM) of 84%, a viability, T/C (second compound 0.1 µM, first compound 0.316 µM) of 99% and a viability, T/C (second compound 0.1 µM, first compound 1 µM) of 77.7%. For the same molecule, the viability, T/C (second compound 0.316 µM, first compound 0.00316 µM) was 97.8%, the viability, T/C (second compound 0.316 µM, first compound 0.01 µM) was 97.2% and the viability, T/C (second compound 0.316 µM, first compound 0.0316 µM) was 114%. It also gave a viability, T/C (second compound 0.316 µM, first compound 0.1 µM) of 106%, a viability, T/C (second compound 0.316 µM, first compound 0.316 µM) of 93% and a viability, T/C (second compound 0.316 µM, first compound 1 µM) of 68.2%. It also gave a viability, T/C (second compound 1 µM, first compound 0.00316 µM) of 92.8%, a viability, T/C (second compound 1 µM, first compound 0.01 µM) of 91.4% and a viability, T/C (second compound 1 µM, first compound 0.0316 µM) of 108%. It also gave a viability, T/C (second compound 1 µM, first compound 0.1 µM) of 103%, a viability, T/C (second compound 1 µM, first compound 0.316 µM) of 117% and a viability, T/C (second compound 1 µM, first compound 1 µM) of 80.9%. It also gave a viability, T/C (second compound 3.16 µM, first compound 0.00316 µM) of 112%, a viability, T/C (second compound 3.16 µM, first compound 0.01 µM) of 88.9% and a viability, T/C (second compound 3.16 µM, first compound 0.0316 µM) of 111%. For the same molecule, the viability, T/C (second compound 3.16 µM, first compound 0.1 µM) was 89%, the viability, T/C (second compound 3.16 µM, first compound 0.316 µM) was 94.1% and the viability, T/C (second compound 3.16 µM, first compound 1 µM) was 77.8%. It also gave a viability, T/C (second compound 10 µM, first compound 0.00316 µM) of 82.1%, a viability, T/C (second compound 10 µM, first compound 0.01 µM) of 111% and a viability, T/C (second compound 10 µM, first compound 0.0316 µM) of 104%. For the same molecule, the viability, T/C (second compound 10 µM, first compound 0.1 µM) was 87%, the viability, T/C (second compound 10 µM, first compound 0.316 µM) was 101% and the viability, T/C (second compound 10 µM, first compound 1 µM) was 71%.
